Data on 3 compounds can be found in ChEMBL document CHEMBL1201862, “PubChem BioAssay data set” (2004).

One may read the Ki as the dissociation constant of the complex between target and ligand, obtained from inhibition or displacement. The term AC50 denotes the midpoint of the concentration-response curve, whichever way the signal moves. A word on the IC50: it is the midpoint of a concentration-inhibition curve.

The target in experiment [1] is Macrophage colony-stimulating factor 1 receptor (Homo sapiens, UniProt P07333). The experiment is classed as functional.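 Note: value comes from the Navigating the Kinome screening panel, CSF1R member.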
Experiment [2] addresses BDNF/NT-3 growth factors receptor (Homo sapiens, UniProt Q16620). Type of experiment: functional.
In experiment [3] the target is Glycogen synthase kinase-3 beta (Homo sapiens, UniProt P49841). Type of experiment: functional.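 Note: value comes from a broad kinome profiling panel, with GSK3B as the panel member.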
Experiment [4] has as its target Proto-oncogene tyrosine-protein kinase receptor Ret (Homo sapiens, UniProt P07949). Type of experiment: functional.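 Note: measured within a kinome-wide profiling panel, RET as the panel member.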
The target in experiment [5] is Tyrosine-protein kinase Fyn (Homo sapiens, UniProt P06241). Type of experiment: functional.
In experiment [6] the target is Calcium/calmodulin-dependent protein kinase type II subunit alpha (Homo sapiens, UniProt Q9UQM7). Put plainly: Navigating the Kinome. Panel member name: CAMK2A. The experiment is classed as functional.
Experiment [7] addresses Dual specificity mitogen-activated protein kinase kinase 1 (Homo sapiens, UniProt Q02750). Put plainly: Navigating the Kinome. Panel member name: MAP2K1. The experiment is classed as functional.
The target in experiment [8] is T1, Histone-lysine N-methyltransferase NSD2 (Homo sapiens, UniProt O96028).
T1 sequence (O96028 whole entry): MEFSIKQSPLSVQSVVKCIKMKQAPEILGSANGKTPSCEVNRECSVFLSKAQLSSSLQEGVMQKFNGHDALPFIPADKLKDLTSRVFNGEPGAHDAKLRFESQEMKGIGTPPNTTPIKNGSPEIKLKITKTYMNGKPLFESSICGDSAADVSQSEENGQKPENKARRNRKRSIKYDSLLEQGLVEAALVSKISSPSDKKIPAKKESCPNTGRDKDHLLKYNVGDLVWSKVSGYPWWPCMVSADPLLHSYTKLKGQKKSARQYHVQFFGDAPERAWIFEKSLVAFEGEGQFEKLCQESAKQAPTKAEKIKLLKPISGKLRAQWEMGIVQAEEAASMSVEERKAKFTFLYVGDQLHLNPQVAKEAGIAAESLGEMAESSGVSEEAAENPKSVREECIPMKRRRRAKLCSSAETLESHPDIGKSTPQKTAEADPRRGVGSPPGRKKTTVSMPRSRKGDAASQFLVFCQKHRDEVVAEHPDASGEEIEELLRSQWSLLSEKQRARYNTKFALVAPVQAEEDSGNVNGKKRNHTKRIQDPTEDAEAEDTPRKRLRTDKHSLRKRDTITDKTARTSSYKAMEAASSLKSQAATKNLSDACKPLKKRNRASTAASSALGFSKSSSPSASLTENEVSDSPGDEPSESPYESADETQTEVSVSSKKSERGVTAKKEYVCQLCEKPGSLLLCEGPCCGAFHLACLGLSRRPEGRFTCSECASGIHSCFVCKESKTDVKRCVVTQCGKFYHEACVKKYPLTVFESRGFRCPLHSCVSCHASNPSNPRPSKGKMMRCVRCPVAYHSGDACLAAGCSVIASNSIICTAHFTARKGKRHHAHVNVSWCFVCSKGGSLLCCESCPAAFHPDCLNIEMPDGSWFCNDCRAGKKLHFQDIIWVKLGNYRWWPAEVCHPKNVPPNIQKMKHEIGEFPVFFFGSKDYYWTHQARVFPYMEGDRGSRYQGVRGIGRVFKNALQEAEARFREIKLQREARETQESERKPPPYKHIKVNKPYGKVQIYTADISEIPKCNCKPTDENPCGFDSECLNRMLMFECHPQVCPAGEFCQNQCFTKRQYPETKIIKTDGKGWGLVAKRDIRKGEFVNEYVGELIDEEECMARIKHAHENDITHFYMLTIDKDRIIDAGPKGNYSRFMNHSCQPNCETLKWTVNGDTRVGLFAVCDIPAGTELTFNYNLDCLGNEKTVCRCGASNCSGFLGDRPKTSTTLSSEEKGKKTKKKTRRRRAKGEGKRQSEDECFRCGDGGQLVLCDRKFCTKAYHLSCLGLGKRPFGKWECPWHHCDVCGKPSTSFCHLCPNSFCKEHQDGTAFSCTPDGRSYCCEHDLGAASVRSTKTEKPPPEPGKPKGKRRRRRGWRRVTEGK
The experiment is classed as biochemical.

The target of experiment [9] is T2, Sentrin-specific protease 7 (Homo sapiens, UniProt Q9BQF6).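 Note: Luminescence-based dose-response confirmation of ultra-high-throughput screening hits, measuring inhibition of SENP7.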
T2 sequence (Q9BQF6 whole entry): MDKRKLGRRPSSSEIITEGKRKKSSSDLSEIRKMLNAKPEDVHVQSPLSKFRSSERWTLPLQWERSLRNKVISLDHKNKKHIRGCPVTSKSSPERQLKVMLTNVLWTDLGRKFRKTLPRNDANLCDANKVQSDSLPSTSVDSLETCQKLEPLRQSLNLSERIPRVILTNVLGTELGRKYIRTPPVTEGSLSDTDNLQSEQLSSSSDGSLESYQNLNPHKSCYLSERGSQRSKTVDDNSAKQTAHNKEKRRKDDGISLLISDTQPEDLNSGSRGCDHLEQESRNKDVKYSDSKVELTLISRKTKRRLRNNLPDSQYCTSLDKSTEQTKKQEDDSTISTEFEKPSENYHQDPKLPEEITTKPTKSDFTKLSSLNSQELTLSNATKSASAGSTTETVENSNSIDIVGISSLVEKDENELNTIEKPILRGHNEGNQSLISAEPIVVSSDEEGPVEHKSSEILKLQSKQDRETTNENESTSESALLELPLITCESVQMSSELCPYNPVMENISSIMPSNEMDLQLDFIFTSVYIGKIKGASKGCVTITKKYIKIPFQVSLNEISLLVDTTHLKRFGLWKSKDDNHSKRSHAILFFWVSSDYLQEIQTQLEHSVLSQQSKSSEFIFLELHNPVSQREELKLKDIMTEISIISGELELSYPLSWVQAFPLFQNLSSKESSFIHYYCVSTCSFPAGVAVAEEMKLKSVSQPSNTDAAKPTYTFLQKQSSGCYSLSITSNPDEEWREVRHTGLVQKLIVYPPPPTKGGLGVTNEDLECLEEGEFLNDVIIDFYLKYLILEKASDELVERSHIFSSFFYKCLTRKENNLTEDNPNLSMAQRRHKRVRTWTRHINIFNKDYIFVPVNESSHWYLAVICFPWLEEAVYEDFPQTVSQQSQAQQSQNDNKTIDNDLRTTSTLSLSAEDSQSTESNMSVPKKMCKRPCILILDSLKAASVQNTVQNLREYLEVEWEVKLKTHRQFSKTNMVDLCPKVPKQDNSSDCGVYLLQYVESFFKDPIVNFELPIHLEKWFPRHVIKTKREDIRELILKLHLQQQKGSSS
The experiment is classed as functional.

Experiment [10] addresses Dual specificity protein phosphatase 3 (Homo sapiens, UniProt P51452). Put plainly: VHR1 phosphatase inhibitors, primary screen, biochemical, absorbance, uHTS (AID 1654).
The target of the next experiment is Beta-galactosidase (Escherichia coli, UniProt Q8VNN2). Kind of experiment: beta-galactosidase enzyme inhibitors and activators, dose response, artefact control for CCR6 antagonist project, biochemical, E. coli enzyme, set 3 (AID 504712). Type of experiment: functional.

Calls of active or inactive are those of the source.

Sequence of Beta-galactosidase (Q8VNN2 whole entry): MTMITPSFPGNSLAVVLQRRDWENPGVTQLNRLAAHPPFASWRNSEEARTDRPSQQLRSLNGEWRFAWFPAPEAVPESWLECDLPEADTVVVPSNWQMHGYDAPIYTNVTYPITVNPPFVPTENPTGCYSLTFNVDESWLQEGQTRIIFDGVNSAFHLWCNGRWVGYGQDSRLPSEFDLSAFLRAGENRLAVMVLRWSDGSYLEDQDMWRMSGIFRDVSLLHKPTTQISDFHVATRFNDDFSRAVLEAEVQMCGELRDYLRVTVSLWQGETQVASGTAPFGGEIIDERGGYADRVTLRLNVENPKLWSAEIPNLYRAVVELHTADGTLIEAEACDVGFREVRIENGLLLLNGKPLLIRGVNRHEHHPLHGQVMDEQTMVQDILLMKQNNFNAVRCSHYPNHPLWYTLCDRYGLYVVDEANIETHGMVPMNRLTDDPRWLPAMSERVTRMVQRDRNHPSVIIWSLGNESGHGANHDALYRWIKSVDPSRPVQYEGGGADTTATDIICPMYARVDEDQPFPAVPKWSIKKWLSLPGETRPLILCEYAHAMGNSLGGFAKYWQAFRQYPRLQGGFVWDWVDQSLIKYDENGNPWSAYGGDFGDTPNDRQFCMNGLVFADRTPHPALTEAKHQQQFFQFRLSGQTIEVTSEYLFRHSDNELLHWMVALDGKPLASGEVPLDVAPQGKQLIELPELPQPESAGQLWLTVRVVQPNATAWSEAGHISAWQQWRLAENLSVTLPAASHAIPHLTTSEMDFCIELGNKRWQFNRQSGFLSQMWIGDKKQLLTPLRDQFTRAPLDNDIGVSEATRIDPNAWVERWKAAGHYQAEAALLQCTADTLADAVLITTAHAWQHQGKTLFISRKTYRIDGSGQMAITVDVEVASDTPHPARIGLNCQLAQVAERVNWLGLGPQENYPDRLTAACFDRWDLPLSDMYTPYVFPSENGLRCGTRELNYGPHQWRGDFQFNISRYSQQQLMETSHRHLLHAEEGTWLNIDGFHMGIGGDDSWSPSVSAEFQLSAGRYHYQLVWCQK
Sequence of Dual specificity protein phosphatase 3 (P51452 whole entry): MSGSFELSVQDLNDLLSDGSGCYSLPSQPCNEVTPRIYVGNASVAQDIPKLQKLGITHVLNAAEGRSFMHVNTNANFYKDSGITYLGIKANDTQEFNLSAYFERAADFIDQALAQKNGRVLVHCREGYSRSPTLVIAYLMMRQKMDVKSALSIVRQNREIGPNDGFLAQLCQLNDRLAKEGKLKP
Sequence of Calcium/calmodulin-dependent protein kinase type II subunit alpha (Q9UQM7 whole entry): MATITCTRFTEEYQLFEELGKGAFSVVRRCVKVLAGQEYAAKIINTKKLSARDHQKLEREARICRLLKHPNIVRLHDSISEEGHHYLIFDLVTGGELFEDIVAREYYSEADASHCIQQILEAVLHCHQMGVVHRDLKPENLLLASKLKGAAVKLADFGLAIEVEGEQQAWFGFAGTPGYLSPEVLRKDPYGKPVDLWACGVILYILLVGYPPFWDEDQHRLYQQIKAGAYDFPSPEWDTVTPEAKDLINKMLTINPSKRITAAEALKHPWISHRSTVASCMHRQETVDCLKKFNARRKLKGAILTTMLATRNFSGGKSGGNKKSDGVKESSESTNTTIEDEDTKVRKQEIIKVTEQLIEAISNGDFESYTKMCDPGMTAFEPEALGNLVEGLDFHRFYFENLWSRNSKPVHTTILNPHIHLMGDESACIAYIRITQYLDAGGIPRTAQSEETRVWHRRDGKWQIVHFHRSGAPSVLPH
Sequence of BDNF/NT-3 growth factors receptor (Q16620 whole entry): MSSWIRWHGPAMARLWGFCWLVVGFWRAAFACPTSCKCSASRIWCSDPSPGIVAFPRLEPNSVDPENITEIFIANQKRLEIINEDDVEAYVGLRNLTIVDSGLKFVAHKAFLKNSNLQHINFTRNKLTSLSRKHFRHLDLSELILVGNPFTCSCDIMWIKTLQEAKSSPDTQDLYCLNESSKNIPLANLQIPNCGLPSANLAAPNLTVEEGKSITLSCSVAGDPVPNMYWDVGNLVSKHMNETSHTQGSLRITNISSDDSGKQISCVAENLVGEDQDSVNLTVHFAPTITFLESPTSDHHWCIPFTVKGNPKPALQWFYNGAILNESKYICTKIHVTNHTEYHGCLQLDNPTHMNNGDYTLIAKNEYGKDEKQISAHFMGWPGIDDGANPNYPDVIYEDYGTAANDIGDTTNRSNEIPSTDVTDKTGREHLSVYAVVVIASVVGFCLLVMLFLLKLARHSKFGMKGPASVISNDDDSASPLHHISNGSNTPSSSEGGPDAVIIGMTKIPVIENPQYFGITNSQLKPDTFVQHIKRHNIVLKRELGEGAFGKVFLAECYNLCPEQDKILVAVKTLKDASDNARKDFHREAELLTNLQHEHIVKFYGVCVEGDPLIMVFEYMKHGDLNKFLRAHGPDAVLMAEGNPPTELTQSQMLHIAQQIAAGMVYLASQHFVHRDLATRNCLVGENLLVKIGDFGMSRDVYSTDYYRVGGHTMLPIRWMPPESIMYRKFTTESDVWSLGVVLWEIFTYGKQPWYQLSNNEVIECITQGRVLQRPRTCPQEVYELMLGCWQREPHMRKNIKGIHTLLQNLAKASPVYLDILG
Sequence of Proto-oncogene tyrosine-protein kinase receptor Ret (P07949 whole entry): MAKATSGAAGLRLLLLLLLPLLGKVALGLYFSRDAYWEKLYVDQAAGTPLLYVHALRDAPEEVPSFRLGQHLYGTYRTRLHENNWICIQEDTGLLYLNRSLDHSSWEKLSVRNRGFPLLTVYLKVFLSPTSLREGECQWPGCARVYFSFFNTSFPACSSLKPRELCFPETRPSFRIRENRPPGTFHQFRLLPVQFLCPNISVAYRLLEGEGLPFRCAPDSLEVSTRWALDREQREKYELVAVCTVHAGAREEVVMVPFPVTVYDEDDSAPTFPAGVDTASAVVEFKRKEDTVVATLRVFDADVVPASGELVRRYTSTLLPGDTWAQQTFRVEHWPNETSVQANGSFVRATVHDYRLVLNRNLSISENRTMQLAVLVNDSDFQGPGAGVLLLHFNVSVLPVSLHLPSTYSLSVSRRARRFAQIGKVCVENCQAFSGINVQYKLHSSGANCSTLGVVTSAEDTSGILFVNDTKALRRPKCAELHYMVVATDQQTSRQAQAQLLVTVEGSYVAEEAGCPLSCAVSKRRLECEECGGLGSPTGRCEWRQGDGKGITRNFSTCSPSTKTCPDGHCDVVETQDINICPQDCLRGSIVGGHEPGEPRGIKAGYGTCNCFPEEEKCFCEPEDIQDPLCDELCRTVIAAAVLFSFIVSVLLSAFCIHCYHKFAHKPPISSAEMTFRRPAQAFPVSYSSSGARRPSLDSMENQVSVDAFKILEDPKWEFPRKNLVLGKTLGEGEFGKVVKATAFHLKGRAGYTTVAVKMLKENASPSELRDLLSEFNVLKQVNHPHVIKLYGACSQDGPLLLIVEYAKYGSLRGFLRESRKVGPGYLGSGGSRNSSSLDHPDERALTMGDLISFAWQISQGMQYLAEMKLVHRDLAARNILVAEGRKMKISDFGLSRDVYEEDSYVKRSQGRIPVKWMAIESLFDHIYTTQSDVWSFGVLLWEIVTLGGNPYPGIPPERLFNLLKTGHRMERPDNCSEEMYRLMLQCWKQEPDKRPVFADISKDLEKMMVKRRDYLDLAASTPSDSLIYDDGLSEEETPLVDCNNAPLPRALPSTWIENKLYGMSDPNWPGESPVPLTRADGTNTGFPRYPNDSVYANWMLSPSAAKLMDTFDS
Sequence of Dual specificity mitogen-activated protein kinase kinase 1 (Q02750 whole entry): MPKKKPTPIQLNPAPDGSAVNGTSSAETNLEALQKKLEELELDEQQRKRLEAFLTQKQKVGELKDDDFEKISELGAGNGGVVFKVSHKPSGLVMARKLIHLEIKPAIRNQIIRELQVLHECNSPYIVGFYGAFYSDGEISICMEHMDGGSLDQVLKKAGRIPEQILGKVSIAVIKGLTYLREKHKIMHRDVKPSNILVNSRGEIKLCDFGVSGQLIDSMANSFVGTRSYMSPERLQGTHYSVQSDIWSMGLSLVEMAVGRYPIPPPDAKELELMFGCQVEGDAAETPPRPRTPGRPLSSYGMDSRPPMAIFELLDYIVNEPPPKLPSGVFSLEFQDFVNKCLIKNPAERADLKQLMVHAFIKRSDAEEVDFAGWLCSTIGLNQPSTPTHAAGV
Sequence of Glycogen synthase kinase-3 beta (P49841 whole entry): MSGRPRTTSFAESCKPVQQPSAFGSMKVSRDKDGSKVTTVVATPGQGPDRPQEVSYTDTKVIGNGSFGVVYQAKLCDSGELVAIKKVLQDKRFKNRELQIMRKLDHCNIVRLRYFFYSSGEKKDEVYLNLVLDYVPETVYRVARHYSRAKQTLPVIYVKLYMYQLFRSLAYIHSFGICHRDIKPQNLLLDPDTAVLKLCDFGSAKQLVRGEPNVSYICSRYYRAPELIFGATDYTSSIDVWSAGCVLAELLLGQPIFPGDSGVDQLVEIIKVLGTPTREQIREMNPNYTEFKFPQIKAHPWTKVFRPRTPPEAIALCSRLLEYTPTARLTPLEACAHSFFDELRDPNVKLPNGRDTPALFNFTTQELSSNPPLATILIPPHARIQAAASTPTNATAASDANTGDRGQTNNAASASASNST
Sequence of Tyrosine-protein kinase Fyn (P06241 whole entry): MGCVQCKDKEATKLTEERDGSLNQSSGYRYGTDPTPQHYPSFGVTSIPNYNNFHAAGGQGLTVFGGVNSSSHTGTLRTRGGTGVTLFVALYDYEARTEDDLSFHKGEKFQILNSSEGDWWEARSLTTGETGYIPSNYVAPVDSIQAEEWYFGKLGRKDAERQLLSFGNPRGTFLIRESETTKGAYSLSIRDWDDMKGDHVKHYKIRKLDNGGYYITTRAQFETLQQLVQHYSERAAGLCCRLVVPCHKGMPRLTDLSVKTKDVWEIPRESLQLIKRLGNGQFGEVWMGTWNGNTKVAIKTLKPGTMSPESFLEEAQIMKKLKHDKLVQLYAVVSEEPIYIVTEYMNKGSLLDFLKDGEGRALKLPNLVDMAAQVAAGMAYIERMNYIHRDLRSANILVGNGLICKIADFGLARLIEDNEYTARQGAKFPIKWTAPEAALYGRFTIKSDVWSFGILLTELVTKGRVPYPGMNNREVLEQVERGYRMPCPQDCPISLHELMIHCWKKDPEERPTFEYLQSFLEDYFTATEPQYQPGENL

For `O=C(Cc1cccs1)Nc1nc2ccccc2s1`, the Ki in experiment [1] was > 2.51 µM (inactive); in [2] it was > 3.98 µM (inactive); in experiment [3], 0.501 µM (active); in [4] it was 3.16 µM (active); in experiment [5], 5.01 µM (active); in [6] it was 3.16 µM (active). Further, the Ki in [7] was 2 µM (active).
Regarding `O=C(NNc1cc(N2CCCC2)nc(N2CCCC2)n1)c1ccc([N+](=O)[O-])cc1`, the AC50 in [8] is 13.7 µM (active). For the same compound, in experiment [9], the IC50 was 2.55 µM (active).
In the case of `O=S(=O)(O)c1cccc2c(N=Nc3ccc(O)c4ncccc34)cccc12`, the IC50 in experiment [10] is 2.28 µM (active); on Beta-galactosidase it was 46.3 µM (inactive). Also, the AC50 in [8] was 7.57 µM (active).
